# From patent US20250171465A1, “AKT INHIBITORS” (Stablix, Inc., priority 2023, published 2025)
# pIC50: −log10 of the molar value.
# Test system: KU1919.1
# Experiment: Cell Titer Glo (CTG) proliferation assay, KU1919
# Assay type: cell-based
# Settings: Homo sapiens, KU-19-19; KU1919.1 cells, 72.0 hrs.; read-out: AVE CTG Proliferation KU1919.1 72.0 hrs.
# Experimental: Seed cells in 40 μL of cell culture media into each well of 384-well cell culture plate, spin them at room temperature at 1,000 RPM for 1 minute and then transfer the plates into 37° C. 5% CO2 incubator overnight. Next day, treat cells with 40 nL of diluted compound and return to incubator. After compound treatment for 3 days, Add 30 μL of CellTiter-Glo reagent (Promega) into each well to be detected. Then place the plates at room temperature for 30 min followed by reading on EnVision. Inhibition activity calculated as % DMSO=100×(LumSample-Lum low control)/(Lum high control-Lum low control) where high control is from cells treated with 0.1% DMSO and Low control obtained from PBS only. Use XLFit (equation 201) to calculate IC50 (A+ ((B−A)/(1[…]((x/C)^D)))) where A: Bottom, B: Top, C: IC50, D: Slope.
row,Structure (SMILES),pIC50
1,C[C@@H]1C[C@@H](O)c2ncnc(N3CCN(C(=O)[C@H](CN4CCC(OC5CCN(C(=O)[C@H](NC(=O)c6cccc(C7CCCN(C(=O)C8(C)CC8)C7)c6F)C6CCCCC6)CC5)CC4)c4ccc(Cl)cc4)CC3)c21 (stereo partly drawn) [Compound I-291],5.30 to 6.00
2,C[C@@H]1C[C@@H](O)c2ncnc(N3CCN(C(=O)[C@H](CCN4CCC(CN5CCN(C(=O)[C@H](NC(=O)c6cccc(C7CCCN(C(=O)CNCc8ccc(F)cc8F)C7)c6)C6CCCCC6)CC5)CC4)c4ccc(Cl)cc4)CC3)c21 (stereo partly drawn) [Compound I-274],6.00 to 6.30
3,CC(C)(C)OC(=O)N1CCC(OC2CCN(CC[C@H](NC(=O)C3(N)CCN(c4ncnc5[nH]ccc45)CC3)c3ccc(Cl)cc3)CC2)CC1 [Compound I-316],5.30 to 6.00
4,NC1(C(=O)N[C@@H](CCN2CCN(C(=O)CN3CCC(CN4CCN(C(=O)[C@H](NC(=O)c5cccc(C6CCCN(C(=O)C7CC7)C6)c5)C5CCCCC5)CC4)CC3)CC2)c2ccc(Cl)cc2)CCN(c2ncnc3[nH]ccc23)CC1 (stereo partly drawn) [Compound I-247],5.30 to 6.00
5,C[C@@H]1C[C@@H](O)c2ncnc(N3CCN(C(=O)[C@@H](CCN4CCC(CN5CCN(C(=O)[C@H](NC(=O)c6cccc(C7CCCN(C(=O)CNCc8ccc(F)cc8F)C7)c6)C6CCCCC6)CC5)CC4)c4ccc(Cl)cc4)CC3)c21 (stereo partly drawn) [Compound I-275],6.00 to 6.30
6,NC1(C(=O)N[C@@H](CCOCCN2CCC(OC3CCN(C(=O)[C@H](NC(=O)c4cccc(C5CCCN(C(=O)CNC6CC6)C5)c4)C4CCCCC4)CC3)CC2)c2ccc(Cl)cc2)CCN(c2ncnc3[nH]ccc23)CC1 (stereo partly drawn) [Compound I-295],5.30 to 6.00
7,NC1(C(=O)N[C@@H](CCN2CCC(OC3CCN(C(=O)[C@H](NC(=O)c4cccc(C5CN(C(=O)CNC6CC6)C5)c4)C4CCCCC4)CC3)CC2)c2ccc(Cl)cc2)CCN(c2ncnc3[nH]ccc23)CC1 [Compound I-244],5.30 to 6.00
8,NC1(C(=O)N[C@@H](CCN2CCN(C(=O)CN3CCC(CN4CCN(C(=O)c5cccc(C6CCCN(C(=O)C7CC7)C6)c5)CC4)CC3)CC2)c2ccc(Cl)cc2)CCN(c2ncnc3[nH]ccc23)CC1 (stereo partly drawn) [Compound I-233],5.00 to 5.30
9,NC1(C(=O)N[C@@H](CCOCCN2CCC(OC3CCN(C(=O)[C@H](NC(=O)c4cccc(C5CCCN(C(=O)CNCc6ccc(F)cc6F)C5)c4)C4CCCCC4)CC3)CC2)c2ccc(Cl)cc2)CCN(c2ncnc3[nH]ccc23)CC1 (stereo partly drawn) [Compound I-236],6.00 to 6.30
10,C[C@@H]1C[C@@H](O)c2ncnc(N3CCN(C(=O)[C@H](CN4CCC(OC5CCN(C(=O)[C@H](NC(=O)c6cccc(C7CCCN(C(=O)C89CC(C8)C9)C7)c6F)C6CCCCC6)CC5)CC4)c4ccc(Cl)cc4)CC3)c21 (stereo partly drawn) [Compound I-292],5.30 to 6.00
11,NC1(C(=O)N[C@@H](CCN2CCC(OC3CCN(C(=O)[C@H](NC(=O)c4cccc(C5CC5)c4F)C4CCCCC4)CC3)CC2)c2ccc(Cl)cc2)CCN(c2ncnc3[nH]ccc23)CC1 [Compound I-260],5.30 to 6.00
12,C[C@@H]1C[C@@H](O)c2ncnc(N3CCN(C(=O)[C@@H](CCN4CCC(CN5CCN(C(=O)[C@H](NC(=O)c6cccc(C7CCCN(C(=O)C8CC8)C7)c6)C6CCCCC6)CC5)CC4)c4ccc(Cl)cc4)CC3)c21 (stereo partly drawn) [Compound I-266],5.30 to 6.00
13,C=CC(=O)N1CCN(c2ccc(CCC(=O)N3CCC(OC4CCN(CC[C@H](NC(=O)C5(N)CCN(c6ncnc7[nH]ccc67)CC5)c5ccc(Cl)cc5)CC4)CC3)o2)C(=O)C1 [Compound I-285],< 5.00
14,C=CC(=O)N1CCN(c2ccc(CCC(=O)N3CCN(CC4CCN(CC[C@H](NC(=O)C5(N)CCN(c6ncnc7[nH]ccc67)CC5)c5ccc(Cl)cc5)CC4)CC3)o2)C(=O)C1 [Compound I-286],5.30 to 6.00
15,CCc1cccc(-c2cnc(C(=O)N3CCN(CC4CCN(CC(=O)NCCNC[C@@H](C(=O)N5CCN(c6ncnc7c6[C@H](C)C[C@H]7O)CC5)c5ccc(Cl)cc5)CC4)CC3)c(NC(=O)CNCc3ccncn3)c2)c1 [Compound I-166],5.30 to 6.00
16,CC(C)(C)OC(=O)N[C@@H](C(=O)NCCCCS(=O)(=O)NCC[C@H](NC(=O)C1(N)CCN(c2ncnc3[nH]ccc23)CC1)c1ccc(Cl)cc1)C1CCCCC1 [Compound I-309],5.30 to 6.00
17,NC1(C(=O)N[C@@H](CCN2CCN(C(=O)CN3CCC(OC4CCN(C(=O)[C@H](NC(=O)c5cccc(C6CC6)c5F)C5CCCCC5)CC4)CC3)CC2)c2ccc(Cl)cc2)CCN(c2ncnc3[nH]ccc23)CC1 [Compound I-270],5.30 to 6.00
18,C=CC(=O)N1CCN(c2ccc(CCC(=O)N3CCC(CN4CCN(CC[C@H](NC(=O)C5(N)CCN(c6ncnc7[nH]ccc67)CC5)c5ccc(Cl)cc5)CC4)CC3)o2)C(=O)C1 [Compound I-284],5.30 to 6.00
19,NC1(C(=O)N[C@@H](CCN2CCN(C(=O)C34CCC(CN5CCN(C(=O)c6cccc(C7CCCN(C(=O)C8CC8)C7)c6)CC5)(CC3)OC4)CC2)c2ccc(Cl)cc2)CCN(c2ncnc3[nH]ccc23)CC1 (stereo partly drawn) [Compound I-246],5.30 to 6.00
20,NC1(C(=O)N[C@@H](CCN2CCC(OC3CCN(C(=O)[C@H](NC(=O)c4ccc(C5CCN(C(=O)C6CC6)CC5)cc4)C4CCCCC4)CC3)CC2)c2ccc(Cl)cc2)CCN(c2ncnc3[nH]ccc23)CC1 [Compound I-231],5.30 to 6.00

row,Structure (SMILES),pIC50
1,NC1(C(=O)N[C@@H](CCNC(=O)[C@H](NC(=O)C2CC2)C2CCCCC2)c2ccc(Cl)cc2)CCN(c2ncnc3[nH]ccc23)CC1 [Compound I-237],5.00 to 5.30
2,NC1(C(=O)N[C@@H](CCNS(=O)(=O)CCCCNC(=O)[C@H](NC(=O)c2cccc(C3CCCN(C(=O)CNCc4ccc(F)cc4F)C3)c2)C2CCCCC2)c2ccc(Cl)cc2)CCN(c2ncnc3[nH]ccc23)CC1 (stereo partly drawn) [Compound I-239],< 5.00
3,NC1(C(=O)N[C@@H](CCN2CCC(OC3CCN(C(=O)[C@H](NC(=O)c4cccc(C5CCCN(C(=O)C6CC6)C5)c4)C4CCCCC4)CC3)CC2)c2ccc(Cl)cc2)CCN(c2ncnc3[nH]ccc23)CC1 (stereo partly drawn) [Compound I-249],5.30 to 6.00
4,CC(C)(C)OC(=O)N[C@@H](C(=O)NCC[C@H](NC(=O)C1(N)CCN(c2ncnc3[nH]ccc23)CC1)c1ccc(Cl)cc1)C1CCCCC1 [Compound I-313],5.30 to 6.00
5,CC(C)(C)OC(=O)N[C@@H](C(=O)N1CCN(CC23CCC(C(=O)N4CCN(CC[C@H](NC(=O)C5(N)CCN(c6ncnc7[nH]ccc67)CC5)c5ccc(Cl)cc5)CC4)(CC2)CO3)CC1)C1CCCCC1 [Compound I-308],5.30 to 6.00
6,C=CC(=O)N1CCN(c2ccc(CCC(=O)NCCOCCNCC[C@H](NC(=O)C3(N)CCN(c4ncnc5[nH]ccc45)CC3)c3ccc(Cl)cc3)o2)C(=O)C1 [Compound I-287],< 5.00
7,CC1(C(=O)N2CCCC(c3cccc(C(=O)N[C@@H](C(=O)N4CCC(OC5CCN(CCOCC[C@H](NC(=O)C6(N)CCN(c7ncnc8[nH]ccc78)CC6)c6ccc(Cl)cc6)CC5)CC4)C4CCCCC4)c3)C2)CC1 (stereo partly drawn) [Compound I-294],5.30 to 6.00
8,NC1(C(=O)N[C@@H](CCN2CCC(OC3CCN(C(=O)[C@H](NC(=O)c4cccc(C5CN(C(=O)CNCc6ccc(F)cc6F)C5)c4)C4CCCCC4)CC3)CC2)c2ccc(Cl)cc2)CCN(c2ncnc3[nH]ccc23)CC1 [Compound I-245],6.00 to 6.30
9,NC1(C(=O)N[C@@H](CCOCCCCCNC(=O)[C@H](NC(=O)c2cccc(C3CCCN(C(=O)CNC4CC4)C3)c2)C2CCCCC2)c2ccc(Cl)cc2)CCN(c2ncnc3[nH]ccc23)CC1 (stereo partly drawn) [Compound I-298],5.30 to 6.00
10,C[C@@H]1C[C@@H](O)c2ncnc(N3CCN(C(=O)[C@H](CN4CCC(OC5CCN(C(=O)[C@H](NC(=O)OC(C)(C)C)C6CCCCC6)CC5)CC4)c4ccc(Cl)cc4)CC3)c21 [Compound I-276],5.30 to 6.00
11,NC1(C(=O)N[C@@H](CCN2CCC(OC3CCN(C(=O)[C@H](NC(=O)c4cccc(C5CCCN(C(=O)CNCc6ccc(F)cc6F)C5)c4)C4CCCCC4)CC3)CC2)c2ccc(Cl)cc2)CCN(c2ncnc3[nH]ccc23)CC1 (stereo partly drawn) [Compound I-251],6.00 to 6.30
12,NC1(C(=O)N[C@@H](CCN2CCC(OC3CCN(C(=O)c4cccc(C5CCCN(C(=O)C6CC6)C5)c4F)CC3)CC2)c2ccc(Cl)cc2)CCN(c2ncnc3[nH]ccc23)CC1 (stereo partly drawn) [Compound I-290],5.30 to 6.00
13,NC1(C(=O)N[C@@H](CCNS(=O)(=O)CCCCNC(=O)[C@H](NC(=O)c2cccc(C3CN(C(=O)CNCc4ccc(F)cc4F)C3)c2)C2CCCCC2)c2ccc(Cl)cc2)CCN(c2ncnc3[nH]ccc23)CC1 [Compound I-238],< 5.00
14,NC1(C(=O)N[C@@H](CCNS(=O)(=O)CCCCNC(=O)[C@H](NC(=O)c2cccc(C3CCCN(C(=O)C4CC4)C3)c2)C2CCCCC2)c2ccc(Cl)cc2)CCN(c2ncnc3[nH]ccc23)CC1 (stereo partly drawn) [Compound I-234],< 5.00
15,NC1(C(=O)N[C@@H](CCN2CCC(OC3CCN(C(=O)[C@H](NC(=O)c4ccc(C5CCN(C(=O)CNCc6ccc(F)cc6F)CC5)cc4)C4CCCCC4)CC3)CC2)c2ccc(Cl)cc2)CCN(c2ncnc3[nH]ccc23)CC1 [Compound I-220],5.30 to 6.00
16,NC1(C(=O)N[C@@H](CCNS(=O)(=O)CCCCNC(=O)[C@H](NC(=O)c2cccc(C3CN(C(=O)C4CC4)C3)c2)C2CCCCC2)c2ccc(Cl)cc2)CCN(c2ncnc3[nH]ccc23)CC1 [Compound I-228],< 5.00
17,CC1(C(=O)N2CCCC(c3cccc(C(=O)N[C@@H](C(=O)NCCCCCOCC[C@H](NC(=O)C4(N)CCN(c5ncnc6[nH]ccc56)CC4)c4ccc(Cl)cc4)C4CCCCC4)c3)C2)CC1 (stereo partly drawn) [Compound I-297],5.00 to 5.30
18,NC1(C(=O)N[C@@H](CCN2CCN(C(=O)C34CCC(CN5CCN(C(=O)[C@H](NC(=O)c6cccc(C7CCCN(C(=O)C8CC8)C7)c6)C6CCCCC6)CC5)(CC3)OC4)CC2)c2ccc(Cl)cc2)CCN(c2ncnc3[nH]ccc23)CC1 (stereo partly drawn) [Compound I-232],< 5.00
19,CC(C)(C)OC(=O)N[C@@H](C(=O)N1CCC(OC2CCN(CC[C@H](NC(=O)C3(N)CCN(c4ncnc5[nH]ccc45)CC3)c3ccc(Cl)cc3)CC2)CC1)C1CCCCC1 [Compound I-311],6.00 to 6.30
